Assay: Amount of compound an AA-1 polymer formulation can hold
Type: physicochemical
Settings: by weight
Excerpt: The formulations may be made by mixing the N-halogenated or N,N-dihalogenated amine compound with the polymer using water. Water/oil emulsions, hydrating agents, wetting agents, surfactants, and the like may also be used. Concentrations of N-halogenated or N,N-dihalogenated amine compound may range from about 0.01% to about 5.0% (by weight). Concentrations of polymer may be from about 0.01% to about 10% (by weight) in water. For example, in certain implementations, the concentration of N-halogenated or N,N-dihalogenated compounds may range from about 0.1% to about 2.0% (by weight). Higher concentrations of polymer may be required to formulate higher concentrations of the N-halogenated or N,N-dihalogenated amine compound. For example, a 1% AA-1 formulation can hold up to about 2% N,N-dichloro-2,2-dimethyltaurine, whereas a 2% AA-1 formulation can hold up to about 3.5% of the same compound. These ratios may differ as different polymers and N-halogenated or N,N-dihalogenated amine compound are combined in a given formulation.

With `CC(C)(CS(=O)(=O)O)N(Cl)Cl` [NVC-422, N,N-dichloro-2,2-dimethyltaurine] the “amount of compound the formulation can hold” value (1% AA-1 formulation) was “about 2%” and the “amount of compound the formulation can hold” value (2% AA-1 formulation) was “about 3.5%”.
